The text below walks through data of patent US20100184094A1, “USE OF MDCK CELLS IN THE EVALUATION OF CHOLESTEROL MODULATORS” (priority 2007, published 2010).

As a reminder, the Ki is the equilibrium dissociation constant of an inhibitor or competing ligand from its target. As usually defined, the IC50 is the concentration that inhibits the measured activity by half.

Where two headings read alike, the source gives them in different places.

Assay [1] has as its target T1, human NPC1L1 (Homo sapiens, UniProt Q9UHC9).
T1 construct: expressed in transfected cells
T1 sequence (Q9UHC9 22-1359): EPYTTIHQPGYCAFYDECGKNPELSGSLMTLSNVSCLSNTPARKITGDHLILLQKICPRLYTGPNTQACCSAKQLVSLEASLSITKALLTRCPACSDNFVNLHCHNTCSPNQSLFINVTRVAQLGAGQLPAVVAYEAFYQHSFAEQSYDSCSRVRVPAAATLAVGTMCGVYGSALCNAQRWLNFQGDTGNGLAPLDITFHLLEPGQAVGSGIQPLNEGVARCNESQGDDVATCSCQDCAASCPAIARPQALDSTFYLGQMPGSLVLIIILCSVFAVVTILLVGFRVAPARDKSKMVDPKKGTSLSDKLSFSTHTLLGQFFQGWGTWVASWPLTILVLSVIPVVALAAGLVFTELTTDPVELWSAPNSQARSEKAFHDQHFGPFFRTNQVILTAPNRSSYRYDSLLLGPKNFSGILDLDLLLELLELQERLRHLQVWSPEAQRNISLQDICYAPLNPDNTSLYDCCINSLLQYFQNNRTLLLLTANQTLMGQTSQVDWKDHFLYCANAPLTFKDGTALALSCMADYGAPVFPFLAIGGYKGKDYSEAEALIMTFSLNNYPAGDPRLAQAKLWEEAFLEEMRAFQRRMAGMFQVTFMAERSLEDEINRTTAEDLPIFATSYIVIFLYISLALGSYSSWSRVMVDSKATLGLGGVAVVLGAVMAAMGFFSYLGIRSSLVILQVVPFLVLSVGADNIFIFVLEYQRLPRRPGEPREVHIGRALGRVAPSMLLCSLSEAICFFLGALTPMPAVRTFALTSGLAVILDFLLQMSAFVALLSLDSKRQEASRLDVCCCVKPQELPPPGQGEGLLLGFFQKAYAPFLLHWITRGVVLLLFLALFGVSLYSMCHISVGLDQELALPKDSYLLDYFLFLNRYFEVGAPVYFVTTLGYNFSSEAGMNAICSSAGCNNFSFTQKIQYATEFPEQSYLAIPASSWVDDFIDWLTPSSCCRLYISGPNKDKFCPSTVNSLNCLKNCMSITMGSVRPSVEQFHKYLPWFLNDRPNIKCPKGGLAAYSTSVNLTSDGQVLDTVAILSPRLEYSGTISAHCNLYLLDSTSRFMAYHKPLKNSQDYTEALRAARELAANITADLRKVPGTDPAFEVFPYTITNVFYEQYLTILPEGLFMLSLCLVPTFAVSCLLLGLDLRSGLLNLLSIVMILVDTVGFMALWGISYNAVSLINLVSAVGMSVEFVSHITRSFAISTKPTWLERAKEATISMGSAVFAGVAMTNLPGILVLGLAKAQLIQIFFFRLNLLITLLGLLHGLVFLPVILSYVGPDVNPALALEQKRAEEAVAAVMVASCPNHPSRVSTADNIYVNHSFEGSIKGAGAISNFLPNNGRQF
The assay can be described thus: [3H]AS binding to hNPC1L1/MDCKII-Flp cells. The note with it: FIG. 7D, read-out: Ki inhibition of [3H]AS binding. The protocol: rNPC1L1/HEK293 and TsA201 cells were seeded at a density of 10,000 cells per well in 96-well poly-D-lysine coated plates and cells were allowed to attach for approximately 18 h at 37° C. TsA201 cells were subsequently transfected with dog NPC1L1/pcDNA5/FRT according to the manufacturer's instructions (Roche) and incubated for 3 days at 37° C. MDCKII-derived, LLC-PKI, HepG2, or CaCo-2 cells were seeded at a density of 25,000 cells per well in 96-well tissue culture treated plates, and cells were allowed to attach and differentiate for approximately 72 h at 37° C., except for CaCo-2 cells where differentiation took approximately 14 days at 37° C. […] Duplicate samples were averaged for each experimental point. […] Dissociation kinetics were determined by addition of 100 μM EZE-gluc, and incubating for different periods of time. Nonspecific binding was defined in the presence of 100 μM EZE-gluc. At the end of the incubation period, cells were washed twice with 200 μl of pre-warmed DMEM to separate bound from free ligand, 1% SDS was added to the wells followed by 5 ml of Scintillant, and radioactivity associated with cells was determined using a β-counter. […] Thereafter, plates were placed on ice and cells were washed twice with ice-cold PBS, followed by ice-cold acid wash with DMEM, pH 3.5, for 1, 5 or 15 minutes. […] For Transwell experiments, MDCKII cells were seeded at 200,000 cells/well in a 24-well plate and incubated for 3 days at 37° C. […] Thereafter, both apical and basolateral compartments were washed three times with PBS, and the Transwell filter was cut out and its associated radioactivity determined using afi-counter. Data from saturation, competition and ligand dissociation experiments were analyzed as described in the literature; see, Priest, et al., 2004 Biochemistry 43:9866-9876; Knaus et al., 1995 Biochemistry 34:13627-13634. The association rate, k1, was determined by employing the pseudo-first-order rate equation k1=kobs([LR]e/[L][LR]max)) where [LR]max is the concentration of the complex at equilibrium, [L] is the concentration of ligand, [LR]max is the total receptor concentration, kobs is the slope of the pseudo-first order plot, ln([LR]e/([LR]e−[LR]t)) versus time, and [LR]t is the receptor-ligand complex at one given time point t.
To validate MDCKII cells as an appropriate surrogate system for monitoring NPC1L1-dependent processes, we evaluated their ability to perform EZE-sensitive cholesterol flux using a similar protocol to that recently reported. This assay makes use of the ability of βmCD to deplete membrane-bound cholesterol. […]
(§1) To further characterize the [^3H] cholesterol influx process into MDCK cells, the potency of EZE-like compound PS for inhibiting [^3H] cholesterol uptake was determined.

Assay [2] has as its target T1, human NPC1L1. The assay is described as follows: [3H]cholesterol flux into hNPC1L1/MDCKII-Flp cells. Format: cell-based. To be noted: for IC50: hNPC1L1/MDCKII-Flp. The protocol:
Flux assays were performed essentially as described by Yu et al., 2006 J Biol. Chem. 281:6616-6624. Briefly, cell growth medium was completely aspirated and replaced with 200 μl of 5% LPDS containing the appropriate concentration of compound and incubated at 37° C./3 h in a 5% CO2 incubator. Media was subsequently aspirated from cells and cells were incubated in 200 μl of 0-5.5% βmCD dissolved and filtered through a […] filter at 37° C./45 minutes in a 5% CO2 incubator. Media was dumped from cells that were then washed twice with 125 μl of 5% LPDS before media was aspirated and [3H]cholesterol complexed to BSA in 5% LPDS was added; see Yu et al., 2006 J. Biol. Chem. 281:6616-6624. After 45 minute incubation, cells were washed twice with DMEM, thoroughly aspirated and then 1% SDS was added prior to extraction for scintillation counting.
To validate MDCKII cells as an appropriate surrogate system for monitoring NPC1L1-dependent processes, we evaluated their ability to perform EZE-sensitive cholesterol flux using a similar protocol to that recently reported. This assay makes use of the ability of βmCD to deplete membrane-bound cholesterol. Subsequent exposure of cells to [^3H] cholesterol provides a time-dependent flux of this substrate into the cells. […] In an attempt to improve the assay window, a stable MDCKII-Flp cell line over-expressing human NPC1L1, hNPC1L1/MDCKII-Flp, was generated.
as §1

[3] abbreviates: FIG. 7D, read-out: IC50 block of [3H]cholesterol flux.

`COC(=O)[C@H]1O[C@@H](Oc2ccc([C@@H]3[C@@H](CC[C@H](O)c4ccc(F)cc4)C(=O)N3c3ccc(C#CCNS(C)(=O)=O)cc3)cc2)[C@H](O)[C@@H](O)[C@@H]1O` [PS, 4-[(2S,3R)-3-[(3S)-3-(4-fluorophenyl)-3-hydroxypropyl]-1-(4-{3-[(methylsulfonyl)amino]prop-1-yn-1-yl}phenyl)-4-oxoazetidin-2-yl]phenyl methyl-β-D-glucopyranosiduronate]: on human NPC1L1 [1], the Ki is 5 nM. For the same molecule, the “blockade of [3H]cholesterol influx” value at human NPC1L1 [2] (10 μM PS, 5.5% βmCD treatment) is “almost completely blocked”. Further, the 50% inhibitory concentration (IC50) at human NPC1L1 [2] (FIG. 7C, read-out: IC50 inhibition of [3H]cholesterol uptake) came to 10.3 ± 1.5 nM; at human NPC1L1 [2] (setting [3]), 7 nM.

As for `O=C1[C@H](CC[C@H](O)c2ccc(F)cc2)[C@@H](c2ccc(O)cc2)N1c1ccc(F)cc1` [EZE, Ezetimibe], the inhibition constant Ki on human NPC1L1 [1] was 1300 nM. The IC50 at human NPC1L1 [2] (setting [3]) is over 1000 nM.

`O=C(O)[C@H]1O[C@@H](Oc2ccc([C@@H]3[C@@H](CC[C@H](O)c4ccc(F)cc4)C(=O)N3c3ccc(F)cc3)cc2)[C@H](O)[C@@H](O)[C@@H]1O` [EZE-gluc, ezetimibe glucuronide]: the Ki on human NPC1L1 [1] came out at 209 nM. Moreover, on human NPC1L1 [2] (setting [3]), the IC50 is 300 nM.
